Test results from patent US12083125B2, “Drug-induced epigenetic remodeling to prevent fibrosis” (Thomas Jefferson University, priority 2016, dated 2024).
“Also recorded” adds a separate entry of the source. Like-named read-outs stand apart in the source and are kept apart here.

Key:
[1] = testing of GSK-J4 concentration range (efficacy and toxicity)
Method: For example, when administering GSK-J4 to a patient, an appropriate therapeutic range comprises: about 1 μM to 10 μM concentration for a liquid, topical vehicle. Suitable doses can be generated based upon the tissue to be treated and area to be treated. […] The LD50 is otherwise known to those of skill in the art based upon the molecule of interest. The GSK-J4 can be formulated with suitable excipients and into a suitable vehicle for delivery to a human patient.

[2] = evaluation of GSKJ1, GSKJ2, GSKJ4, GSKJ5: efficacy / in vitro studies; conditions: for efficacy / activity: ethyl esters of GSKJ1 and GSKJ2; for potency in in vitro studies: over a control, data not shown
Text: (§1) To further review compounds in this class, we evaluated […]4, and GSKJ5. Based on our data, and review of the molecule, the highly polar carboxylate group of GSKJ1 and GSKJ2 restricts cellular permeability. […] Accordingly, for purposes of treating disease and disorders here, the most preferred active pharmaceutical compound is GSK-J4.

[3] = tested on: ex vivo mock cataract surgery explants; assay: wound healing (open wound area) in ex vivo mock cataract surgery explants; format: cell-based, chick
Text: (§2) FIG. 2A illustrates how the ex vivo mock cataract surgery explants are created. Ex vivo mock cataract surgery explants provide a powerful model in which to study wound healing as well as the development of fibrotic disease. Briefly, to create this model, the fiber cell mass is hydroeluted from the lens leaving behind lens epithelial cells that remain adherent to the lens capsule. The resultant ex vivo explant when placed in culture is star shaped, with the adherent cells located in the points of the star. In response to the injury induced by the surgery, mesenchymal cells involved in repair move to the wound edges.
As shown in FIG. 2B wound healing across the denuded basement membrane is typically completed by day 3. […]
We also determined whether GSKJ4 treatment affected wound healing. […] Open wound area (μm^2) was measured on Day 0 (D0) through Day 3 (D3) in the presence of vehicle control (DMSO) or GSKJ4. Open wound area was measured for each ex vivo capsule D0-D3 and presented in the graph+/− SEM. […]
(§3) Cells from the ex vivo mock cataract surgery explant were treated for 24 hour as indicated above with vehicle or GSK-J4. […] In FIG. 13B we determined the effect of GSKJ4 short-term treatment on wound healing. […]

[4] = evaluation of GSKJ1, GSKJ2, GSKJ4, GSKJ5: cellular permeability / bioavailability; format: in vitro ADME
Text: as §1

[5] = tested on: cells from the ex vivo mock cataract surgery explants; assay: ex vivo mock cataract surgery explants: myofibroblast emergence, αSMA and Fn-EDA expression; format: cell-based, chick
Text: For example, in a PCO model, using an ex vivo lens mock cataract surgery model in chick embryos that recapitulates features of PCO, we investigated the cell reprogramming events involved in regulating changes in epigenetic markings of chromatin, which result in alterations of chromatin structure and impact gene transcriptional programs to control the emergence of myofibroblasts.
We tested this epigenetic targeting strategy using a clinically relevant ex vivo chick mock cataract surgery model that recapitulates the major features of the lens fibrotic disease, PCO, as well as a human lens cells (SRA01/04). Human SRA01/04 lens cells are studied extensively for the acquisition of a mesenchymal phenotype resulting from an Epithelial Mesenchymal Transition (EMT) after exposure to TGFβ associated with the development of lens fibrosis.
as §2
As shown in FIG. 2B wound healing across the denuded basement membrane is typically completed by day 3. Lens epithelial cells led by a leader cell population, which expresses the surface receptor CD44+ [42], move collectively to repopulate the denuded area of the wounded lens capsule (where the differentiated lens fiber cells were removed). FIG. 2C depicts the wound area over a three-day period. In FIGS. 3A and B CD44+ leader cell population that has migrated to the outside wound edge of the explants (FIG. 3A, left panel, right arrow) directs the collective migration of lens epithelial cells onto the rigid tissue culture substrate, a region we refer to as the extracapsular zone (ECZ). […] Therefore, within one model system we can assess epigenetic targeting strategies for preventing fibrosis and determine how these approaches will affect normal wound healing. This ex vivo model was used to investigate the epigenetic mechanisms (detailed below) involved in regulating cell reprogramming to a myofibroblast phenotype associated with lens fibrotic disease.
Next, we tested if manipulating histone de-methylase activity could change chromatin structure to block pro-fibrotic transcription factors from binding to DNA and the acquisition to a myofibroblast phenotype associated with fibrosis. […] Thus, treatment with GSKJ4 prevents αSMA expression in the ex vivo mock cataract surgery model.
Cells from the ex vivo mock cataract surgery explants were treated with vehicle or GSKJ4 for 24 hr. ECZ regions were treated 1 day after injury and inhibitor was washed away after 24 hour of treatment. We chose to add the inhibitor on day 1, during the time of open chromatin, the perfect timing to prevent cell reprogramming to a fibrotic phenotype. […]
as §3

FHL124 human lens cells = assay: TGFβ-stimulated human lens cells, western blot for FN-EDA and Collagen I; format: cell-based; conditions: FHL124 cells stimulated with TGFβ, FIG. 11
Method: We also performed similar studies with human lens cell culture. FHL124 human lens cells, a non-transformed spontaneously generated human lens cell line from embryonic explants, were stimulated with Transforming Growth Factor β (TGFβ), a potent inducer of the fibrotic response, in the absence or presence of the UTX inhibitor GSKJ4. Western blotting was performed with antibodies to extracellular matrix molecules associated with fibrosis, including Fibronectin EDA (FN-EDA), a splice form of FN and Collagen I. FN EDA expression is tightly linked to myofibroblast differentiation and Collagen I is a defining feature of fibrosis/scarring. GAPDH was used as a loading control for WB analysis.

**Q.** Which efficacy by concentration ([1]; 10 μM versus 1 μM) does the source give for `CCOC(=O)CCNc1cc(N2CCc3ccccc3CC2)nc(-c2ccccn2)n1` [GSK-J4] here?
**A.** Its efficacy by concentration is “higher efficacy at 10 μM than the 1 μM”.

**Q.** And the toxicity ([1]; 100 μM)?
**A.** The toxicity was “began to show signs of toxicity”.

**Q.** What about the efficacy / activity [2] of the same compound?
**A.** Its efficacy / activity is “greater efficacy”.

**Q.** What about the “wound healing (open wound area)” value ([3]; Day 0 through Day 3 in presence of GSKJ4 vs DMSO, FIG. 12) of the same compound?
**A.** The value was “somewhat slowed but did not prevent”.

**Q.** What about the “wound healing (open wound area), short-term treatment” value ([3]; treated at time of injury, day 0, for 24 hour, followed day 0 through day 4) of the same compound?
**A.** The value was “does not affect”.

**Q.** What about the bioavailability ([4]; ethyl ester masking the acid group) of the same compound?
**A.** Its bioavailability is “increased”.

**Q.** And the “myofibroblast emergence, short-term treatment” value ([5]; 24 hour treatment, FIGS. 14A and B)?
**A.** Its value is “effective to block”.

**Q.** And the αSMA expression ([5]; cells from ex vivo mock cataract surgery explants, FIG. 10A, B)?
**A.** Its αSMA expression is “prevents”.

**Q.** What about the emergence of myofibroblasts ([5]; ex vivo mock cataract surgery model, FIG. 10A) of the same compound?
**A.** Its emergence of myofibroblasts is “effectively suppressed”.

**Q.** What about the “Fn-EDA expression, short-term treatment” value ([5]; treated 24 hr from day 1 after injury, washed away, lysates day 3, western blot) of the same compound?
**A.** The value was “significantly inhibited”.

**Q.** What about the “αSMA expression, short-term treatment” value ([5]; treated 24 hr from day 1 after injury, washed away, lysates day 3, western blot (αSMA to GAPDH)) of the same compound?
**A.** The value was “significantly inhibited; also recorded: effectively blocked”.

**Q.** What about the “TGFβ induced expression of Collagen I” value (FHL124 human lens cells) of the same compound?
**A.** Its value is “blocked”.

**Q.** What about the “TGFβ induced expression of FN EDA” value (FHL124 human lens cells) of the same compound?
**A.** The value was “blocked”.

**Q.** With `O=C(O)CCNc1cc(N2CCc3ccccc3CC2)nc(-c2ccccn2)n1` [GSKJ1] as the compound, how does the “potency in in vitro studies” value [2] read?
**A.** The value was “potent over a control”.

**Q.** And the cellular permeability [4]?
**A.** The cellular permeability was “restricts”.

**Q.** For `O=C(O)CCNc1cc(N2CCc3ccccc3CC2)nc(-c2cccnc2)n1` [GSKJ2], which “potency in in vitro studies” value [2] is on record?
**A.** The value was “potent over a control”.

**Q.** What about the cellular permeability ([4]; highly polar carboxylate group) of the same compound?
**A.** Its cellular permeability is “restricts”.

**Q.** With `CCOC(=O)CCNc1cc(N2CCc3ccccc3CC2)nc(-c2cccnc2)n1` [GSKJ5] as the compound, how does the efficacy / activity [2] read?
**A.** Its efficacy / activity is “inactive”.
